Legend:
Test in all cases: relative viability (nuclei count vs DMSO), 5 days (fraction); higher = more cells survive
[1] = compound: C[As](C)SC[C@H](NC(=O)CC[C@H](N)C(=O)O)C(=O)NCC(=O)O [Darinaparsin] + Cc1cc(Nc2cc(N3CCN(C)CC3)nc(Sc3ccc(NC(=O)C4CC4)cc3)n2)n[nH]1 [Tozasertib] (partner 0.1 µM)
Method in brief: (§1)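 Lung cancer cell lines in 1536-well plates were dosed by pin tool the day after seeding, either with one drug alone or with a fixed anchor-drug dose plus five library-drug doses (not always all listed) in √10 steps. After 5 days, cells were fixed and their nuclei stained in one step (final 0.05% Triton X-100, 1% formaldehyde, 1 ug/ml Hoechst), then counted on 4× images. Relative viability is the nuclei count in treated wells divided by that in vehicle wells. Values are medians of duplicate plates.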

AZ628 + Phenformin = compound: CC1=C(C=C(C=C1)NC(=O)C2=CC(=CC=C2)C(C)(C)C#N)NC3=CC4=C(C=C3)N=CN(C4=O)C [AZ628] + N=C(N)NC(=N)NCCc1ccccc1 [Phenformin] (partner 250 µM)
Method in brief: as §1

AZ628 + Crizotinib = compound: CC1=C(C=C(C=C1)NC(=O)C2=CC(=CC=C2)C(C)(C)C#N)NC3=CC4=C(C=C3)N=CN(C4=O)C [AZ628] + C[C@@H](Oc1cc(-c2cnn(C3CCNCC3)c2)cnc1N)c1c(Cl)ccc(F)c1Cl [Crizotinib] (partner 1 µM)
Method in brief: as §1

QS11 + Phenformin = compound: C1CC2=C(C1)C=C(C=C2)OC3=NC(=C4C(=N3)N(C=N4)CC5=CC=C(C=C5)C6=CC=CC=C6)N[C@@H](CC7=CC=CC=C7)CO [QS11] + N=C(N)NC(=N)NCCc1ccccc1 [Phenformin] (partner 250 µM)
Method in brief: as §1

Row | Cell Line | relative viability ([1]; first compound 0.08 µM) | relative viability ([1]; first compound 0.8 µM) | relative viability ([1]; first compound 2.53 µM) | relative viability ([1]; first compound 8 µM) | relative viability (AZ628 + Phenformin; first compound 0.08 µM) | relative viability (AZ628 + Phenformin; first compound 0.253 µM) | relative viability (AZ628 + Phenformin; first compound 0.8 µM) | relative viability (AZ628 + Phenformin; first compound 2.53 µM) | relative viability (AZ628 + Phenformin; first compound 8 µM) | relative viability (AZ628 + Crizotinib; first compound 0.08 µM) | relative viability (AZ628 + Crizotinib; first compound 0.253 µM) | relative viability (AZ628 + Crizotinib; first compound 0.8 µM) | relative viability (AZ628 + Crizotinib; first compound 2.53 µM) | relative viability (AZ628 + Crizotinib; first compound 8 µM) | relative viability (QS11 + Phenformin; first compound 0.08 µM) | relative viability (QS11 + Phenformin; first compound 0.253 µM) | relative viability (QS11 + Phenformin; first compound 0.8 µM) | relative viability (QS11 + Phenformin; first compound 2.53 µM) | relative viability (QS11 + Phenformin; first compound 8 µM)
1 | NCI-H2228 | 0.217 | 0.217 | 0.286 | 0.235 | 0.25 | 0.274 | 0.252 | 0.218 | 0.206 | 0.372 | 0.486 | 0.5 | 0.41 | 0.531 | 0.259 | 0.325 | 0.407 | 0.479 | 0.452
2 | NCI-H2347 | 0.587 | – | 0.555 | 0.469 | 0.267 | 0.392 | 0.493 | 0.324 | 0.205 | 0.689 | 0.832 | 0.709 | 0.589 | 0.443 | 0.374 | 0.395 | 0.362 | 0.364 | 0.637
3 | NCI-H2405 | 0.777 | 0.776 | 0.703 | 0.889 | 0.153 | 0.202 | 0.229 | 0.235 | 0.24 | 0.478 | 0.66 | 0.522 | 0.588 | 0.568 | 0.361 | 0.443 | 0.372 | 0.45 | 0.399
4 | NCI-H3122 | 0.446 | 0.41 | 0.377 | 0.417 | 0.366 | 0.288 | 0.305 | 0.31 | 0.289 | 0.349 | 0.252 | 0.29 | 0.238 | 0.234 | 0.376 | 0.399 | – | 0.384 | 0.322
5 | PC-3 [JPC-3] | 1.08 | 0.996 | 0.739 | 1.1 | 0.441 | 0.477 | 0.485 | 0.464 | 0.383 | 0.941 | 1.04 | 1 | 1.06 | 0.922 | 0.446 | 0.476 | 0.461 | 0.489 | 0.431
6 | PC-14 | 0.707 | 0.479 | 0.768 | 0.577 | 0.638 | 0.438 | 0.498 | 0.599 | 0.416 | 0.909 | 0.839 | 1.04 | 0.976 | 0.726 | 0.384 | 0.49 | 0.574 | 0.683 | 0.737
7 | RERF-LC-KJ | 0.482 | 0.483 | 0.447 | 0.472 | 0.432 | 0.424 | 0.392 | 0.401 | 0.31 | 0.779 | 0.817 | 0.868 | 0.85 | 0.726 | 0.407 | 0.41 | 0.438 | 0.378 | 0.315
8 | SK-LU-1 | 0.402 | 0.278 | 0.294 | 0.316 | – | 0.433 | 0.488 | 0.348 | 0.253 | 0.699 | 0.874 | 0.778 | 0.792 | 0.885 | 0.527 | 0.557 | 0.587 | 0.404 | 0.456
9 | SK-MES-1 | 1.08 | 0.854 | 0.74 | 0.968 | 0.715 | 0.661 | 0.619 | 0.675 | 0.466 | 0.953 | 0.93 | 1.08 | 1.15 | 0.882 | 0.764 | 0.678 | 0.663 | 0.712 | 0.711
10 | SW 1573 | 0.145 | 0.2 | 0.197 | 0.14 | 0.322 | 0.308 | 0.215 | 0.288 | 0.2 | 0.664 | 0.587 | 0.707 | 0.598 | 0.425 | 0.407 | 0.374 | 0.413 | 0.442 | 0.346
11 | UMC-11 | 0.215 | 0.211 | 0.211 | 0.188 | 0.322 | 0.268 | 0.339 | 0.294 | 0.255 | 0.578 | 0.572 | 0.684 | 0.542 | 0.781 | 0.325 | 0.287 | 0.302 | 0.324 | 0.24
